This passage reports GI50 and TGI results from PubChem BioAssay (NCI).

Some test systems named below: BT-549 breast; CCRF-CEM leukemia; HS 578T breast; HT29 colon; NCI-H522 lung; OVCAR-8 ovarian; SF-539 CNS; SK-OV-3 ovarian; SN12C renal; UACC-62 melanoma.
Holding throughout (experiment): NCI tumour cell line growth inhibition, 48 h

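The compound was tested at five concentrations on cells cultured in 96-well plates, with a 48-hour exposure period. The concentration for 50% growth inhibition is given as GI50. At the TGI there is no net growth.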

In the case of `Cn1ccnc1S/C(=C\C=C(C#N)C#N)c1ccc(Cl)cc1`, in the assay on BT-549 breast, the GI50 is 5.14 µM. In addition, the TGI in the assay with BT-549 breast is greater than 28.7 µM; in the assay with CCRF-CEM leukemia, greater than 11.2 µM; with HS 578T breast, 13.6 µM; with HT29 colon, 16.2 µM; with NCI-H522 lung, 11.5 µM; in the assay on OVCAR-8 ovarian it was 3.57 µM. In addition, the TGI was 6.58 µM in the assay with SF-539 CNS, 38.8 µM in the assay on SK-OV-3 ovarian, greater than 25.7 µM in the assay with SN12C renal and 9.36 µM in the assay with UACC-62 melanoma.

As to `N=C(N)SCCON1C(=O)c2ccccc2C1=O`, the TGI in the assay with BT-549 breast, in the assay with CCRF-CEM leukemia, in the assay on HS 578T breast, in the assay on HT29 colon, in the assay on NCI-H522 lung and in the assay with OVCAR-8 ovarian was greater than 100 µM throughout. Besides, the TGI with SF-539 CNS, in the assay with SK-OV-3 ovarian, in the assay on SN12C renal and in the assay on UACC-62 melanoma was greater than 100 µM in each case.

In the case of `CC(=O)NCCCCNCCCNC(C)=O`, the TGI in the assay on BT-549 breast, in the assay on CCRF-CEM leukemia, in the assay with HS 578T breast, in the assay on HT29 colon, in the assay with NCI-H522 lung and in the assay with OVCAR-8 ovarian was greater than 100 µM each time. Also, the TGI in the assay with SF-539 CNS, in the assay on SK-OV-3 ovarian, in the assay on SN12C renal and in the assay on UACC-62 melanoma was greater than 100 µM each time.

For the molecule `CCNC(=O)Nc1cccc(C)n1`, the TGI with BT-549 breast, with CCRF-CEM leukemia, with HS 578T breast, in the assay on HT29 colon, in the assay on NCI-H522 lung and in the assay on OVCAR-8 ovarian was greater than 100 µM throughout. For the same molecule, the TGI in the assay with SF-539 CNS, with SK-OV-3 ovarian, in the assay on SN12C renal and in the assay on UACC-62 melanoma was greater than 100 µM throughout.

As for `CSc1nc(NC2CCCC2)c2cc[nH]c2n1`, the TGI with BT-549 breast, in the assay on CCRF-CEM leukemia, with HS 578T breast, in the assay with HT29 colon, in the assay on NCI-H522 lung and in the assay on OVCAR-8 ovarian was greater than 100 µM each time. Also, the TGI in the assay with SF-539 CNS, in the assay on SK-OV-3 ovarian, in the assay with SN12C renal and with UACC-62 melanoma was greater than 100 µM in each case.

`CCOC(=O)/C(=C\NCC(O)c1ccccc1)c1nc2ccccc2[nH]1` (stereo unspecified): the TGI with BT-549 breast amounted to 98.7 µM; in the assay on CCRF-CEM leukemia, 33.3 µM; with HS 578T breast it was 39.5 µM; with HT29 colon, 56.7 µM; in the assay on NCI-H522 lung it was 49 µM; with OVCAR-8 ovarian, 69.9 µM. Besides, the TGI with SF-539 CNS is 47.8 µM; in the assay on SK-OV-3 ovarian, greater than 100 µM; in the assay on SN12C renal it was greater than 100 µM; with UACC-62 melanoma, 34.8 µM.

On to `CC(C)CCCC(C)[C@H]1CCC2[C@@H]3CCC4Cc5nc6c(nc5C[C@]4(C)C3CC[C@@]21C)CC1CC[C@@H]2C(C[C@@H](O)[C@@]3(C)C2C[C@@H]2OC4(CCC(C)CO4)C(C)[C@@H]23)[C@@]1(C)C6` (stereo partly specified), for which the TGI in the assay with BT-549 breast, in the assay on CCRF-CEM leukemia, in the assay on HS 578T breast, in the assay on HT29 colon, in the assay on NCI-H522 lung and with OVCAR-8 ovarian was greater than 100 µM throughout. Besides, the TGI in the assay on SF-539 CNS, in the assay with SK-OV-3 ovarian, in the assay with SN12C renal and in the assay with UACC-62 melanoma was greater than 100 µM throughout.

For the molecule `CCCCOC(=O)C(=O)C(CCC(=O)c1ccc(C)cc1)C(=O)C=C(C)C` (stereo unspecified), the TGI in the assay on BT-549 breast, in the assay on CCRF-CEM leukemia, in the assay on HS 578T breast, with HT29 colon, in the assay with NCI-H522 lung and with OVCAR-8 ovarian was greater than 100 µM in each case. The TGI in the assay with SF-539 CNS, with SK-OV-3 ovarian, with SN12C renal and in the assay with UACC-62 melanoma was greater than 100 µM in each case.

Turning to `Cc1ccc(C(=O)N(C2CCCCC2)C2CCCCC2)cc1N=NN(C)C`, the TGI worked out at 26.8 µM with BT-549 breast; 54.7 µM in the assay on CCRF-CEM leukemia; 43.9 µM with HS 578T breast; 16.6 µM with HT29 colon; 16.7 µM with NCI-H522 lung; 27.5 µM in the assay with OVCAR-8 ovarian. For the same molecule, the TGI in the assay with SF-539 CNS turned out to be 37.2 µM; in the assay with SK-OV-3 ovarian, 33.5 µM; in the assay on SN12C renal, 28.7 µM; in the assay on UACC-62 melanoma, 21.6 µM.

For `OC(C1CCC=NN1C(O)(C(F)(F)F)C(F)(F)F)(C(F)(F)F)C(F)(F)F` (stereo unspecified), the TGI with BT-549 breast, with CCRF-CEM leukemia, in the assay with HS 578T breast, in the assay on HT29 colon, in the assay on NCI-H522 lung and with OVCAR-8 ovarian was greater than 10 µM in each case. Moreover, the TGI in the assay with SF-539 CNS, in the assay with SK-OV-3 ovarian, with SN12C renal and with UACC-62 melanoma was greater than 10 µM throughout.

`CC(=O)OC[C@H]1O[C@@H](O[C@H]2[C@H](OC(C)=O)C=CO[C@@H]2COC(C)=O)C(OC(C)=O)[C@H]2OC(C)(C)O[C@H]21` (stereo partly specified): the TGI was greater than 100 µM in the assay on BT-549 breast; greater than 100 µM in the assay on CCRF-CEM leukemia; greater than 100 µM in the assay with HS 578T breast; greater than 100 µM with HT29 colon; 35.7 µM in the assay on NCI-H522 lung; greater than 100 µM in the assay with OVCAR-8 ovarian. The TGI with SF-539 CNS, in the assay on SK-OV-3 ovarian, in the assay with SN12C renal and in the assay on UACC-62 melanoma was greater than 100 µM in each case.

In the case of `CC(=O)NNc1nc(C)c(C(/C=C/c2ccc3c(c2)OCO3)=N/Nc2ccccc2)s1`, the TGI with BT-549 breast, with CCRF-CEM leukemia, with HS 578T breast, in the assay with HT29 colon, with NCI-H522 lung and with OVCAR-8 ovarian was greater than 100 µM in each case. The TGI in the assay on SF-539 CNS, in the assay with SK-OV-3 ovarian, in the assay on SN12C renal and with UACC-62 melanoma was greater than 100 µM throughout.

As to `COC(=O)Cc1ccc2c(c1)Sc1ccc(CC(=O)OC)cc1N2C`, the TGI in the assay on BT-549 breast was 91.7 µM; in the assay on CCRF-CEM leukemia it was greater than 95.7 µM; in the assay on HS 578T breast, greater than 89.3 µM; with HT29 colon it was greater than 100 µM; in the assay with NCI-H522 lung, 58.1 µM; with OVCAR-8 ovarian it was greater than 100 µM. For the same molecule, the TGI with SF-539 CNS, in the assay with SK-OV-3 ovarian, in the assay with SN12C renal and in the assay on UACC-62 melanoma was greater than 100 µM in each case.

Take `COc1ccc(N(C(=O)Nc2ccc(Cl)c(Cl)c2)c2ccccc2)cc1`: the TGI in the assay with BT-549 breast, in the assay with CCRF-CEM leukemia, with HS 578T breast, in the assay on HT29 colon, in the assay on NCI-H522 lung and with OVCAR-8 ovarian was greater than 10 µM each time. Moreover, the TGI in the assay with SF-539 CNS, with SK-OV-3 ovarian, in the assay with SN12C renal and in the assay with UACC-62 melanoma was greater than 10 µM throughout.

Regarding `Oc1ccc(/C=C\c2nnc(/C=C\c3ccc(O)c(O)c3)s2)cc1O`, the TGI in the assay on BT-549 breast was 40.6 µM; in the assay with CCRF-CEM leukemia it was 2.16 µM; with HS 578T breast it was 28.7 µM; in the assay with HT29 colon it was greater than 75.8 µM; in the assay with NCI-H522 lung, 3.29 µM; in the assay with OVCAR-8 ovarian, greater than 48.4 µM. Further, the TGI in the assay with SF-539 CNS stood at 13.8 µM; in the assay with SK-OV-3 ovarian, 26.5 µM; in the assay with SN12C renal it was 24 µM; in the assay on UACC-62 melanoma, 14 µM.

`O=[N+]([O-])c1cccc(-c2csc(N=Nc3c(O)[nH]c4ccccc34)n2)c1`: the TGI in the assay on BT-549 breast was greater than 100 µM; in the assay with CCRF-CEM leukemia, 56.5 µM; in the assay with HS 578T breast, 45.7 µM; with HT29 colon it was 44.5 µM; in the assay on NCI-H522 lung, 36.6 µM; in the assay on OVCAR-8 ovarian, 30 µM. Besides, the TGI in the assay with SF-539 CNS was 68 µM; with SK-OV-3 ovarian, greater than 100 µM; with SN12C renal, 49.7 µM; in the assay with UACC-62 melanoma, greater than 100 µM.

Take `O=C(Nc1sccc1S(=O)(=O)c1ccccc1)c1cccnc1`: the TGI was greater than 86.1 µM with BT-549 breast; greater than 24.5 µM in the assay on CCRF-CEM leukemia; greater than 100 µM with HS 578T breast; greater than 100 µM with HT29 colon; greater than 85.4 µM in the assay on NCI-H522 lung; greater than 100 µM with OVCAR-8 ovarian. Moreover, the TGI in the assay on SF-539 CNS was 38.2 µM; with SK-OV-3 ovarian it was greater than 89.1 µM; in the assay on SN12C renal, greater than 100 µM; with UACC-62 melanoma, greater than 100 µM.

For `NCCC(N)C(=O)O` (stereo unspecified), the TGI in the assay with BT-549 breast, in the assay on CCRF-CEM leukemia, with HS 578T breast, with HT29 colon, with NCI-H522 lung and with OVCAR-8 ovarian was greater than 100 µM throughout. The TGI in the assay with SF-539 CNS, in the assay on SK-OV-3 ovarian, with SN12C renal and in the assay on UACC-62 melanoma was greater than 100 µM throughout.

Take `CC(C)(CN)CN`: the TGI with BT-549 breast, in the assay with CCRF-CEM leukemia, with HS 578T breast, with HT29 colon, with NCI-H522 lung and with OVCAR-8 ovarian was greater than 100 µM throughout. The TGI in the assay with SF-539 CNS, in the assay with SK-OV-3 ovarian, in the assay with SN12C renal and in the assay with UACC-62 melanoma was greater than 100 µM each time.

As to `COC(=O)/C=C/c1ccccc1N=[S@](C)(=O)c1ccc(C)cc1`, the TGI with BT-549 breast is greater than 100 µM; in the assay on CCRF-CEM leukemia it was 44.2 µM; in the assay with HS 578T breast, 64.6 µM; with HT29 colon it was greater than 100 µM; with NCI-H522 lung it was 7.99 µM; in the assay on OVCAR-8 ovarian, greater than 100 µM. Moreover, the TGI in the assay with SF-539 CNS, with SK-OV-3 ovarian, in the assay with SN12C renal and in the assay with UACC-62 melanoma was greater than 100 µM each time.

Take `COc1ccc2c(c1)O[C@@H]1C(O)Oc3cc(OC)c(OC)cc3[C@]1(O)C2=O` (stereo partly specified): the TGI in the assay on BT-549 breast is 91 µM; in the assay on CCRF-CEM leukemia, greater than 100 µM; in the assay with HS 578T breast, greater than 100 µM; in the assay on HT29 colon, greater than 100 µM; with NCI-H522 lung, 36.5 µM; with OVCAR-8 ovarian, greater than 100 µM. For the same molecule, the TGI in the assay on SF-539 CNS, in the assay with SK-OV-3 ovarian, with SN12C renal and in the assay with UACC-62 melanoma was greater than 100 µM each time.

Take `c1ccc(CNc2c3c(nc4ccccc24)CCC3)cc1`: the TGI in the assay with BT-549 breast turned out to be 37.1 µM; in the assay on CCRF-CEM leukemia, 20.9 µM; with HS 578T breast, 65.5 µM; in the assay with HT29 colon, 50.1 µM; with NCI-H522 lung, 39.3 µM; in the assay on OVCAR-8 ovarian, 31.7 µM. The TGI came to 36.7 µM in the assay with SF-539 CNS, 36.2 µM in the assay on SK-OV-3 ovarian, 34.9 µM in the assay on SN12C renal and 28 µM in the assay on UACC-62 melanoma.

`Cc1cnoc1NC1=CC(=O)C(=O)c2ccccc21`: the TGI is greater than 100 µM with BT-549 breast; 44.6 µM with CCRF-CEM leukemia; greater than 100 µM in the assay on HS 578T breast; 90 µM in the assay with HT29 colon; greater than 100 µM with NCI-H522 lung; greater than 100 µM with OVCAR-8 ovarian. Also, the TGI was 58.2 µM in the assay on SF-539 CNS, greater than 100 µM with SK-OV-3 ovarian, 3.53 µM in the assay on SN12C renal and 29.9 µM in the assay on UACC-62 melanoma.
